Activity calls are given as the source filed them. No cut-off for these calls is given here.
Legend:
[1] = target: CDK8/Cyclin C (Homo sapiens) (UniProt P49336+P24863); test: Inhibition of CDK8/Cyclin C (unknown origin) at 10 uM measured after 1 hr by plate reader assay relative to control; assay type: protein-complex assay
[2] = system: HCT-116; test: Antiproliferative activity against human HCT-116 cells assessed as inhibition of cell growth measured after 72 hrs by […]; assay type: functional
[3] = target: CDK8/Cyclin C (Homo sapiens, UniProt P49336); test: Inhibition of CDK8/Cyclin C (unknown origin) measured after 1 hr by plate reader assay; assay type: protein-complex assay
[4] = system: A549; test: Antiproliferative activity against human A549 cells assessed as inhibition of cell growth measured after 72 hrs by SRB assay; assay type: functional
[5] = system: MDA-MB-231; test: Antiproliferative activity against human MDA-MB-231 cells assessed as inhibition of cell growth measured after 72 hrs by SRB assay; assay type: functional
[6] = system: KB; test: Antiproliferative activity against human KB cells assessed as inhibition of cell growth measured after 72 hrs by SRB assay; assay type: functional
[7] = Antiproliferative activity against human KB-VIN cells assessed as inhibition of cell growth measured after 72 hrs by SRB assay; assay type: functional; settings: KBVIN
[8] = system: MCF7; test: Antiproliferative activity against human MCF7 cells assessed as inhibition of cell growth measured after 72 hrs by SRB assay; assay type: functional
[9] = target: Cyclin-dependent kinase 8 (Homo sapiens) (UniProt P49336); test: Inhibition of CDK8 (unknown origin) at 10 uM
[10] = target: Cyclin-C/Cyclin-dependent kinase 19 (Homo sapiens, UniProt Q9BWU1); test: Inhibition of CDK19/Cyclin C (unknown origin); assay type: protein-complex assay
[11] = target: Cyclin-dependent kinase 7 (Homo sapiens) (UniProt P50613); test: Inhibition of CDK7 (unknown origin) at 10 uM
[12] = Toxicity in BALB/c mouse xenografted with human HCT-116 cells assessed as mortality at 150 mg/kg, po measured after 14 days; assay type: organism-based; settings: in vivo, 336 h, time 14 day
[13] = Toxicity in BALB/c mouse xenografted with human HCT-116 cells assessed as changes in body weight at 150 mg/kg, po measured after 14 days; assay type: organism-based; settings: in vivo, 336 h, time 14 day
[14] = system: HCT-116; test: Antitumour activity against human HCT-116 cells assessed as decrease in tumor volume at 150 mg/kg, po measured after 14 days relative to control; assay type: functional; parameters: scale not given: the % may be the effect or the level left; settings: time 14 day
[15] = AUC (0 to 24h) in ICR mouse at 150 mg/kg, po measured after 24 hrs by LC-MS/MS analysis; assay type: ADME, organism-based; parameters: route oral, dose 150 mg/kg, time 24 hrs; settings: in vivo
[16] = MRT (0 to 24h) in ICR mouse at 150 mg/kg, po measured after 24 hrs by LC-MS/MS analysis; assay type: ADME, organism-based; settings: in vivo
[17] = Half-life in ICR mouse at 150 mg/kg, po measured after 24 hrs by LC-MS/MS analysis; assay type: ADME, organism-based; settings: in vivo
[18] = Tmax in ICR mouse at 150 mg/kg, po measured after 24 hrs by LC-MS/MS analysis; assay type: ADME, organism-based; settings: in vivo
[19] = Cmax in ICR mouse at 150 mg/kg, po measured after 24 hrs by LC-MS/MS analysis; assay type: ADME, organism-based; parameters: route oral, time 24 hrs, dose 150 mg/kg; settings: in vivo
[20] = system: MDA-MB-231; test: Induction of cell cycle arrest in human MDA-MB-231 cells assessed as accumulation of cells at G2/M phase measured after 24 hrs by PI staining based flow cytometry assay; assay type: functional

CDK8/Cyclin C, sequence (P49336 whole entry): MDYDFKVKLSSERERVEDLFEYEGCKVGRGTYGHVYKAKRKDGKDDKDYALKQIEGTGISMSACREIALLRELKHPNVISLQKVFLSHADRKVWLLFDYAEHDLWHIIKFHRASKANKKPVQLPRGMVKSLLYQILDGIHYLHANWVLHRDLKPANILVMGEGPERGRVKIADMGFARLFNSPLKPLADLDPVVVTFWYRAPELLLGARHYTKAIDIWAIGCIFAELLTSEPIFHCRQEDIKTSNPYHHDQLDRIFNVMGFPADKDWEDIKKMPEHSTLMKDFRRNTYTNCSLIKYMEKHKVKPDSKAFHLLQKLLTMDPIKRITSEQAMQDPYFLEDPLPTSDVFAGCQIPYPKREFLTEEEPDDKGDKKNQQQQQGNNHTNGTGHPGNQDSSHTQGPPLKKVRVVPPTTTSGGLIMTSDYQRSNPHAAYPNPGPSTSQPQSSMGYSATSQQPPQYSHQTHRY
CDK8/Cyclin C, sequence (P24863 whole entry, further chain): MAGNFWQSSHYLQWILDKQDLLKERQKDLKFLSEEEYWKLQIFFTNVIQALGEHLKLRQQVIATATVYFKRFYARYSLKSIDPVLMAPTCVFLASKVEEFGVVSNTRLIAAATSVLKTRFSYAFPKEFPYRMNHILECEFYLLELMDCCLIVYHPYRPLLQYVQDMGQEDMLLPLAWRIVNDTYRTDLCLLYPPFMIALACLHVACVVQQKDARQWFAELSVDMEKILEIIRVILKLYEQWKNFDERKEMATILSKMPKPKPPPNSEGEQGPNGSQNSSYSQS
Cyclin-dependent kinase 8 (Homo sapiens), sequence (P49336 whole entry): as the sequence (P49336 whole entry) above
Cyclin-C/Cyclin-dependent kinase 19, sequence (Q9BWU1 whole entry): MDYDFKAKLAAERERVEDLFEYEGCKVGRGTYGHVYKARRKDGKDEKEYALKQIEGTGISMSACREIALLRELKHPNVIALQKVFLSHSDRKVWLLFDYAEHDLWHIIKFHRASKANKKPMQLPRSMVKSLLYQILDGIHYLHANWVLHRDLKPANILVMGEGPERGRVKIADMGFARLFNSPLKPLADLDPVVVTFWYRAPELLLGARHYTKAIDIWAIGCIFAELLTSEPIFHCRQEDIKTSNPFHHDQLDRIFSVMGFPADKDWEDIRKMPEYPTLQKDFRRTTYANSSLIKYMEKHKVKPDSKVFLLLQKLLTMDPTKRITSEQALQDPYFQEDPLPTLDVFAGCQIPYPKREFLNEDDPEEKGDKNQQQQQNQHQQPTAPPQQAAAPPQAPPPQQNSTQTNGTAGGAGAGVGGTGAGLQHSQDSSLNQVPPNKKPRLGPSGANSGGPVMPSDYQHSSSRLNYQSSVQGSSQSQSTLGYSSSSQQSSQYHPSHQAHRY
Cyclin-C/Cyclin-dependent kinase 19, sequence (P24863 whole entry, further chain): as the sequence (P24863 whole entry, further chain) above
Cyclin-dependent kinase 7 (Homo sapiens), sequence (P50613 whole entry): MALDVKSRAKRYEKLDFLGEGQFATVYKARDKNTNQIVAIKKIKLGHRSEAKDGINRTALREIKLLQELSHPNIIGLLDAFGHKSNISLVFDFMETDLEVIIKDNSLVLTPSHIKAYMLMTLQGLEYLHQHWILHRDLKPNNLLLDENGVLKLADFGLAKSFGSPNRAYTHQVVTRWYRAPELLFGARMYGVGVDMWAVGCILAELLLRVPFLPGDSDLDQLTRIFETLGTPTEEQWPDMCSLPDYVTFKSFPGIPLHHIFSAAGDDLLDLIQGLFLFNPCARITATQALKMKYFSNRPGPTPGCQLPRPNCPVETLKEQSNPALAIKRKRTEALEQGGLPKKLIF

Structure (SMILES)	inhibition [1] [%]	GI50 [2] [µM]	IC50 [3] [µM]	GI50 [4] [µM]	GI50 [5] [µM]	GI50 [6] [µM]	GI50 [8] [µM]	inhibition [9]	IC50 [10] [µM]	inhibition [11]	GI50 [7] [µM]	Activity [12]	Activity [13]	Activity [14] [%]	AUC(0-t) at 24 h [15] [ng·h/mL]	MRT last at 24 h [16] [h]	half-life [17] [h]	Tmax [18] [h]	Cmax [19] [ng/mL]	Activity [20]
CNC(=O)/C=C/c1ccncc1-c1ccc2cc[nH]c2c1	103	10.3	0.0186	7.84	7.68	> 10	9.23	Active	0.0282	–	10.9	–	–	–	–	–	–	–	–	–
O=C(/C=C/c1ccncc1-c1ccc2cc[nH]c2c1)N1CCOCC1	102	> 30	0.0439	> 10	> 10	> 10	> 10	Active	–	Active	> 10	–	–	–	–	–	–	–	–	–
COC(=O)/C=C/c1ccncc1-c1ccc2ccccc2c1	102	0.35	0.0406	0.76	4.71	6.73	8.17	–	–	–	5.46	Non-Toxic	Non-Toxic	44	153	2.68	3.93	0.57	46.6	–
CN(C)C(=O)/C=C/c1ccncc1-c1ccc2ccccc2c1	100	4.54	0.0301	5.8	7.99	7.76	8.19	–	–	–	4.93	–	–	–	–	–	–	–	–	Dose-Dependent Effect
O=C(/C=C/c1ccncc1-c1ccc2ccccc2c1)NC1CC1	102	6.18	0.0401	5.84	8.42	6.05	6.84	Active	–	–	4.77	–	–	–	–	–	–	–	–	–
COC1CN(C(=O)/C=C/c2ccncc2-c2ccc3ccccc3c2)C1	100	> 30	0.0428	> 10	> 10	> 10	> 10	Active	–	–	> 10	–	–	–	–	–	–	–	–	–

The remaining compounds from weak to strong by GI50 [2], led by results:

inhibition [1] [%]	GI50 [2] [µM]	IC50 [3] [µM]	GI50 [4] [µM]	GI50 [5] [µM]	GI50 [6] [µM]	GI50 [8] [µM]	inhibition [9]	IC50 [10] [µM]	inhibition [11]	Structure (SMILES)	GI50 [7] [µM]	Activity [12]	Activity [13]	Activity [14] [%]	AUC(0-t) at 24 h [15] [ng·h/mL]	MRT last at 24 h [16] [h]	half-life [17] [h]	Tmax [18] [h]	Cmax [19] [ng/mL]	Activity [20]
99	4.45	0.0776	6.45	8.55	7.08	7.12	Active	–	–	CNC(=O)/C=C/c1ccncc1-c1ccc2c(ccn2C)c1	5.69	–	–	–	–	–	–	–	–	–
98	3.48	0.0867	> 10	> 10	> 10	> 10	Active	–	–	CNC(=O)/C=C/c1ccncc1-c1ccc2c(cnn2C)c1	> 10	–	–	–	–	–	–	–	–	–
104	2.14	0.0121	5.74	7.98	7.86	6.88	Active	0.0457	–	CCOC(=O)/C=C/c1ccncc1-c1ccc2cc[nH]c2c1	7.7	–	–	–	–	–	–	–	–	–
102	0.91	0.0533	5.38	8.09	> 10	8.32	Active	–	–	CCOC(=O)/C=C/c1ccncc1-c1ccc2ccccc2c1	8.89	–	–	–	–	–	–	–	–	–
